Counter-ions that a name gives are not always drawn.
Tests used:
α4β2* nAChRs = tested on: α4β2* nAChRs; parameters: method as in earlier work; conditions: agonist-induced signaling; ref Wang et al., 2015; Grupe et al., 2013; Appiani et al., 2024; Jin et al., 2014; read-out: EC50 on α4β2* nAChR signaling; cited from earlier work
rats = tested on: rats; parameters: method as in Maurer et al., 2017; conditions: ref Maurer et al., 2017; cited from earlier work
[1] = biological target: human (α4)2(β2)2β2/α4 (α4β2*) nAChRs (Homo sapiens, UniProt P17787+P43681); assay: FLEXstation membrane potential assay in HEK cells stably expressing α4β2* nAChRs; format: cell-based; conditions: nicotine 0.001–50 μM, ±SEM
Source text: (§1) Human embryonic kidney (HEK) cell lines stably expressing human (α4)2(β2)2β2/α4 (α4β2*) nAChRs, (α4)2(β2)2α5 nAChRs, (α4)2(β2)2β3 nAChRs, (α3)2(β4)2α3/β4 (α3β4*) nAChRs, (α3)2(β2)2α3/β2 (α3β2*) nAChRs, (α3)2(β4)2α5 nAChRs, or (α3)2(β2)2α5 nAChRs were maintained as described previously ([Wang et al., 2015]; [Kuryatov et al., 2005]; [Caligiuri et al., 2022]). The FLEXstation bench top scanning fluorometer from Molecular Devices was used to assay nAChR function in these cells, according to published protocols ([Wang et al., 2015]; [Kuryatov et al., 2005]). The membrane potential kit (Molecular Devices) was used according to the manufacturer’s protocols. Serial dilutions of SR9883 were manually added to the assay plate 15 min prior to recording. […] Compound dilutions were prepared in V-shaped 96-well plates (Fisher Scientific Co.) and added to cell culture wells at a rate of 20 μL s^−1 during recording. Cells were incubated at 29°C for 6–20 h prior to assays to upregulate nAChRs ([Wang et al., 2015]; [Kuryatov et al., 2005]). Data points were averaged from 3 to 4 responses from separate wells. Potency and efficacy were calculated using the Hill equation as described previously ([Wang et al., 2015]).
(§2) Concentration-response curves of SR9883 actions in nAChR-expressing HEK cells and oocytes were fitted to the Hill equation using a nonlinear least squares curve fit method and efficacy and potency values were calculated as previously described ([Wang et al., 2015]). Plasma and brain levels of SR9983 after oral administration were compared using a two-tailed paired t test. […] For the ICSS threshold experiment, percentages of baseline reward threshold scores were calculated by expressing the absolute threshold scores as a percentage of the scores obtained during baseline. The baseline values were the mean thresholds on the three sessions prior to drug injections. Response latency data were analyzed in the same manner as the threshold data. […] Effects of SR9883 on responding for food pellets in rats was analyzed by a two-tailed paired t test. […] Significant main or interaction effects in ANOVAs were followed by Bonferroni or Newman–Keuls post-hoc tests as appropriate. All statistical analyses were performed using GraphPad Prism software with α set to 0.05.

[2] = biological target: T1, human (α4)2(β2)2α5 nAChRs (Homo sapiens, UniProt P17787+P30532+P43681); assay: FLEXstation membrane potential assay in HEK cells stably expressing (α4)2(β2)2α5 nAChRs; format: cell-based; conditions: nicotine 0.001–50 μM, ±SEM
T1 construct: expressed in transfected cells
Source text: as §1, §2

people = tested on: people; parameters: method as in Knight et al., 2009; conditions: placebo approximately 9%; ref Knight et al., 2009; cited from earlier work

T1 sequence (P43681 29-627 limits assumed): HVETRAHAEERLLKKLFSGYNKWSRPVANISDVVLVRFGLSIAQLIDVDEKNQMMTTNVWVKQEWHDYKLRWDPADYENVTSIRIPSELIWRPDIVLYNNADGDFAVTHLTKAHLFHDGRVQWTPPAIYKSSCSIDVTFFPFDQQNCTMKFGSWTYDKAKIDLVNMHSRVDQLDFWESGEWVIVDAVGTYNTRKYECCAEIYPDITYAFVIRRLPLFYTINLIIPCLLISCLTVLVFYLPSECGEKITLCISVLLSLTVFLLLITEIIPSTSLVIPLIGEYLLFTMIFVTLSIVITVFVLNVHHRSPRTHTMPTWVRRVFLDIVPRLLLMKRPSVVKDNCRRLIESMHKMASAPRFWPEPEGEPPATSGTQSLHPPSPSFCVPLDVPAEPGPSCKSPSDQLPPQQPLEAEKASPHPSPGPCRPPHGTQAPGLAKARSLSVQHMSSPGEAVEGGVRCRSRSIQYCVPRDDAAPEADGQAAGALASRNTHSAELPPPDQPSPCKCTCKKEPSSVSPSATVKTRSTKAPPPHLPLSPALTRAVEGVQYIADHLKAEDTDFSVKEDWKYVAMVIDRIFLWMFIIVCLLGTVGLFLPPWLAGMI
T1 sequence (P17787 26-502): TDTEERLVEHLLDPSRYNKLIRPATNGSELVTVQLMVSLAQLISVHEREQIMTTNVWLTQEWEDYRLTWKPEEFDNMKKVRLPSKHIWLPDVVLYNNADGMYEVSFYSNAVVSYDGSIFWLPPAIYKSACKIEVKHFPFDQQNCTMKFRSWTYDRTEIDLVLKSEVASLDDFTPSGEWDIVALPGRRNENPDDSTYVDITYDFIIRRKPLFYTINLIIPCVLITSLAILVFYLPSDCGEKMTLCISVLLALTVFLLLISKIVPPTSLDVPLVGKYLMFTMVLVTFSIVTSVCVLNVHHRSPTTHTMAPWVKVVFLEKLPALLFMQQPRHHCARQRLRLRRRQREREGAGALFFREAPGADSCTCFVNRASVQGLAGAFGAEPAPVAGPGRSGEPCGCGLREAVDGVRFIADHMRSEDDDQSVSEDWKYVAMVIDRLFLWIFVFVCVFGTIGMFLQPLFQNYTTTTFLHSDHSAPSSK
T1 sequence (P30532 23-468): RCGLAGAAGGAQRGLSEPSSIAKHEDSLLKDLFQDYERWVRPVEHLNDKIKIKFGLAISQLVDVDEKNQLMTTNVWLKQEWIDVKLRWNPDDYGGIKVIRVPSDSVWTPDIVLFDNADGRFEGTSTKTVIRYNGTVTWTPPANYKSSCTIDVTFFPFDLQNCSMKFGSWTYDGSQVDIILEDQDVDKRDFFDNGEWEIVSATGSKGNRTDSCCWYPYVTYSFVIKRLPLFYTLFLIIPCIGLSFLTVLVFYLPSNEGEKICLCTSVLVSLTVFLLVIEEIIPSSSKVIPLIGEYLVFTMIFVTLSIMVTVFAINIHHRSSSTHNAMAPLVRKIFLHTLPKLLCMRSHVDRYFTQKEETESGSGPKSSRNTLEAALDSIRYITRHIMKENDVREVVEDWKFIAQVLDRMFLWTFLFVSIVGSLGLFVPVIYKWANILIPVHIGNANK
Chain of human (α4)2(β2)2β2/α4 (α4β2*) nAChRs (P43681 27-627): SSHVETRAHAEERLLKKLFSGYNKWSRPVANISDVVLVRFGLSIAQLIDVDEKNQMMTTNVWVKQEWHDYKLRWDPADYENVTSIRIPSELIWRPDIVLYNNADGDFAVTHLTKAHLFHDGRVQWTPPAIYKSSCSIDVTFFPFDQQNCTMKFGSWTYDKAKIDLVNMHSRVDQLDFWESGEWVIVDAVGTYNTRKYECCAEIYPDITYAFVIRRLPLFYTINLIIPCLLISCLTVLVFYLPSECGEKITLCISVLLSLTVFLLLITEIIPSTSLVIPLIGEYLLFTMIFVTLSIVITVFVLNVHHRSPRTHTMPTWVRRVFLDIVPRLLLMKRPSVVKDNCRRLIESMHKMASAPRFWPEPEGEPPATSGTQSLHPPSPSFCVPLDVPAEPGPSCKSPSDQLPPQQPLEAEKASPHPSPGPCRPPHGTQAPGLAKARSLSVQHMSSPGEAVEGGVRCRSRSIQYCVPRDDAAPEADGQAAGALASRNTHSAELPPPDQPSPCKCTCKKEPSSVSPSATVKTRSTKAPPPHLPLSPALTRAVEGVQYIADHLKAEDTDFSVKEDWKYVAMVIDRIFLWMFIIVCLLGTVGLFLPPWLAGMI
Chain of human (α4)2(β2)2β2/α4 (α4β2*) nAChRs (P17787 26-502): as the sequence (P17787 26-502) above

N#Cc1cccc(-c2nc(-c3cccnc3)no2)c1 [NS9283, 3-[3-(3-pyridyl)-1,2,4-oxadiazol-5-yl]benzonitrile]
EC50 (α4β2* nAChRs): ~1 µM | Intravenous nicotine self-administration behavior (rats): decrease

CN1CCC[C@H]1c1cccnc1 [nicotine, (−)-Nicotine hydrogen tartrate salt, reference compound]
Efficacy ([1]; +SR9883 (10 μM)): 87.20 ± 1.68% | nHill of nicotine ([1]; +SR9883 (10 μM)): 1.0749 ± 0.0928 | Efficacy ([1]; −SR9883): 96.89 ± 2.82% | nHill of nicotine ([1]; −SR9883): 0.8145 ± 0.0740 | Efficacy ([2]; +SR9883 (10 μM)): 92.69 ± 2.19% | nHill of nicotine ([2]; +SR9883 (10 μM)): 1.2934 ± 0.1439 | Efficacy ([2]; −SR9883): 100.49 ± 3.89% | nHill of nicotine ([2]; −SR9883): 0.7395 ± 0.0767

CC(NC(C)(C)C)C(=O)c1cccc(Cl)c1 (stereo not drawn) [Zyban, bupropion]
People remaining abstinent after 1 year of a quit attempt (people): ~16%

c1cnc2cc3c(cc2n1)[C@@H]1CNC[C@H]3C1 [Chantix, varenicline]
People remaining abstinent after 1 year of a quit attempt (people): approximately 23%

From paper PMC11428108 (Frontiers in Molecular Neuroscience, 2024)
